Here are results for 3 compounds from patent publication US20120219561A1, “Prophylaxis Against Cancer Metastasis” (Ingeneron, Inc., priority 2009, published 2012).

For assay [1], the system named is LCN2 expression in SKBr3 cells. Put plainly: Western blotting of LCN2 levels in SKBr3 cells incubated with pathway inhibitors. Format: cell-based, human. As for the experimental part: FIG. 3 depicts experiments showing that LCN2 (NGAL) is a down-stream target of the HER2/PI-3K/AKT/NF-κB pathway. A. Western blotting of LCN2 levels in HER2^+SKBr3 cells treated with Herceptin. B. Western blotting of LCN2 levels in SKBr3 cells incubated with PI-3K inhibitor LY 294002. C. Western blotting of LCN2 levels in SKBr3 cells incubated with the NF-KB inhibitor Bay11-7082. D. Western blotting of LCN2 levels in SKBr3 cells transiently expressing active or dominant negative AKT.
In addition, overexpression of dominant negative AKT led to reduced expression of LCN2, while overexpression of dominant active AKT increased LCN2 levels ([…]). […] Iannetti A, et al. “The neutrophil gelatinase-associated lipocalin (NGAL), a NF-kappaB-regulated gene, is a survival factor for thyroid neoplastic cells” Proc Natl Acad Sci USA 105(37) (2008) 14058.

Assay [2] deals with CXCR4 receptor. The settings on record: animal and human studies; cited from earlier work.
The test system of assay [3] is 4T1 mammospheres. Put plainly: Transwell migration assay of 4T1 mammospheres. Format: cell-based, murine. To be noted: recombinant SDF-1 in serum-free medium in lower chamber. As for the experimental part: FIG. 5 show the mediators for interaction between stem cells and cancer cells. (A) 4T1 cells and especially spheroid-forming 4T1 cells migrate toward the conditioned medium of mASC. 4T1 cells (3×10^4) were plated in the upper chamber of a 3 μm transwell system. The lower chamber was filled with 1 ml of 72 h conditioned medium of mASC. After 24 h of migration through the transwell membrane, cells were fixed and stained with calcein. The results are the mean and SD number of migrated cells per microscopic field under fluorescent microscope. (B) Data showing that mASC but not 4T1 cells produce SDF-1; 4T1 cells especially spheroid-forming 4T1 cells show higher messenger RNA levels of the specific receptor CXCR4. Secreted amounts of SDF-1a were measured by enzyme-linked immunosorbent assay and CXCR4 messenger RNA levels were determined by quantitative reverse transcription-polymerase chain reaction (RT-PCR). Reverse transcription-polymerase chain reaction results were normalized against GAPDH. (C) 4T1 cells and mammospheres migrate toward recombinant SDF-1 in a transwell system. Recombinant murine SDF-1 in serum-free medium was filled into the lower chamber in stated concentrations. CXCR4 inhibition was performed by 30 μg/ml neutralizing antibody 1 h before and during the migration assay. […]

`Cc1ccc(S(=O)(=O)/C=C/C#N)cc1` [Bay11-7082]: in assay [1], the LCN2 expression entry is reported as “reduced in a dose-dependent manner”.
For the compound `c1cc(CN2CCCNCCNCCCNCC2)ccc1CN1CCCNCCNCCCNCC1` [AMD3100], in assay [2], the “hematopoietic stem cell mobilization” value is reported as “able to induce hematopoietic stem cell mobilization”.
With “recombinant SDF-1: recombinant murine SDF-1 (CXCL12), ligand of CXCR4”, the “migration of 4T1 spheroid-forming cells” value in assay [3] is recorded as “triggers migration”.
